Source: US20040220220A1, “Method for treating inflammatory bowel disease” (priority 2001, published 2004)
Several values for one entry are separate records, joined by “and”; a condition that tells them apart may be missing. Identical values can stand only once.

Tests used:
[1] = tested on: Human eosinophils; assay: Eosinophil extracellular superoxide production (cytochrome c); assay type: cell-based; details: 1 hr pretreatment at 37° C.; IL-5 or PAF stimulus
Description: (§1) Human eosinophils were isolated from atopic and non-atopic donors using density centrifugation and CD16-magnetic bead negative selection. Eosinophil purity was always>93%.
Statistical analyses were performed using the Student's paired t-test; significance defined as p value<0.05 compared to “nil” or 0.0 microM HCQ.
The general procedure described hereinabove was followed. Eosinophils were pretreated with HCQ for 1 hr at 37° C. and then stimulated as described in FIG. 1 in 96-well plates (50,000 cells/well). Extracellular superoxide was detected using cytochrome c and a 96-well plate reader.

[2] = lupus erythematosus and rheumatoid arthritis; cited from earlier work
[3] = tested on: leukocytes; details: ex vivo and in vitro experiments; cited from earlier work
[4] = tested on: Human eosinophils; assay: IL-5 stimulated eosinophil degranulation, EDN release by DARIA; assay type: cell-based
Source text: FIG. 2 graphically depicts the effect of HCQ on IL-5 stimulated eosinophil degranulation as measured by release of eosinophil-derived neurotoxin. In this figure, EDN refers to eosinophil-derived neurotoxin.
as §1
The general procedure described hereinabove and Example 1 was followed. Supernatants from superoxide assay samples were analyzed for EDN by Double-Antibody Radioimmunoassay (DARIA). The results are depicted in FIG. 2.

[5] = tested on: human tracheal epithelial cells; assay: Pro-inflammatory mRNA in tracheal epithelial cultures infected with RV16, RT-PCR; assay type: cell-based; details: 50 microM HCQ, RV16 infection
Description: Differentiated cultures of human tracheal cells grown at an air liquid interface were pre-incubated for 12h with 50 microM HCQ prior to 12 h infection with human rhinovirus type 16 (HRV-16). Twelve hours after removal of virus, levels of mRNA for RANTES, ICAM-1, IL-1beta, TNF-alpha and IL-6 were quantified using multiplex two-step (TaqMan) RT-PCR. The results are depicted in FIGS. 6-10.
(§2) FIG. 6 graphically depicts the effects of HCQ on the release of RANTES (regulated on activation normal T-cell expressed and secreted) in cultured human tracheal epithelial cells. In the figure, RV16-p3 refers to the rhinovirus strain. Human tracheal epithelial cells were cultured for 14 days in serum-free growth media. On day 14, the cultures were divided into four groups. Two groups were pre-treated for 6 hours with HCQ (final concentration 50 microM) in media administered via the basolateral side. Then RV-16-p3 at a tissue culture infectious dose (TCID50) of 10^6/ml was added to one of groups receiving HCQ and one of thgroups not pretreated with HCQ. Phosphate buffered saline (PBS) was added to the other two groups, creating four conditions: media alone (control), HCQ alone, RV-16-p3 alone and RV-16-p3+HCQ. After six hours, the experimental suspensions were removed and the cells were washed three times with PBS. Cells were allowed to recover for 24h and then the mucosal surfaces of the culture inserts were flushed with 500 microL of PBS and the flushings were retained.
The filters containing the cell sheets were cut in half and placed in RLT buffer (Rneasy lysis buffer) or fixed in 10% buffered formalin prior to their preparation for fluorescence in situ hybridization (FISH) and gene expression analysis as described in detail elsewhere (Lopez-Souza N, et al., Resistance of differentiated human airway epithelium to infection by rhinovirus, Am J Physiol Lung Cell Mol Physiol, 2004;286:L373-81). Levels of mRNA for RANTES were determined in cell lysates using a two-step method of gene transcript profiling in which multiplex RT-PCR is combined with individual gene quantification via real-time PCR on generated cDNA product.
as §2, with “FIG. 7” for “FIG. 6”, “the upregulation” for “the release”, “of for intercellular adhision molecule 1 (ICAM-1)” for “of RANTES (regulated on activation normal T-cell expressed and secreted)”, “strain. ICAM refers to intracellular adhesion molecule 1.” for “strain.”, “of the groups” for “of thgroups”
FIG. 8 graphically depicts the effects of HCQ on the release of IL-1beta and TNF-alpha in cultured human tracheal epithelial cells. In the figure, RV16-p3 refers to the rhinovirus strain. IL-1 beta refers to Interleukin-1 beta. […]

[6] = Single-dose intravenous HCQ pharmacokinetics in rats; assay type: in vivo; details: for Tmax / Vd / clearance / half-life / AUC(0-inf) / Cmax / AUC(0-t): both sexes, rat, whole blood; for Tmax / Vd / clearance / AUC(0-inf) / Cmax / AUC(0-t): single day; for half-life: 2-compartment model, read-out: Apparent Terminal t1/2 (converted); for AUC(0-t): read-out: AUC0-23
Description: Twelve rats per dose group (six M: six F) received hydroxychloroquine sulfate, USP as an intravenous bolus injected over 30 minutes.
Following the single injection, blood samples were drawn from rat pairs at one, three, six, 12, 24, 36, 48, 192, 360, and 1,032 hours.

[7] = tested on: BEAS-2B epithelial cells; assay: IP-10/RANTES production in BEAS-2B cells exposed to HRV-16; assay type: cell-based; details: 48 hr
Description: Cells of the BEAS-2B epithelial cell line were preincubated for either 6 hr or 24 hr with varying concentrations of HCQ. Cells were then exposed to human rhinovirus type 16 (HRV-16) which was left on the cells in the presence and absence of HCQ at the concentrations indicated for 48 hr. The data is depicted in Table 2 and FIG. 13.

[8] = conventional oral doses 4-6 mg/kg/day, after 3 months therapy, two clinical trials; cited from earlier work
[9] = tested on: Primary Human Epithelial Cells (tonsillar); assay: IP-10/RANTES production in primary epithelial cells exposed to HRV-16; assay type: cell-based
Description: Primary cultures of harvested human tonsillar epithelial cells were preincubated for 24 hr with 50 microM HCQ. The cells were then exposed to human rhinovirus type 16 (HRV-16) which was left on the cells in the presence and absence of HCQ. Medium was recovered at two different time post infection (24 hr viral incubation and 48 hr viral incubation) and assayed for IP-10 and RANTES. The data is depicted in Table 1 below and in FIG. 5.

[10] = tested on: Human eosinophils; assay: IL-5 stimulated eosinophil survival by flow cytometry; assay type: cell-based; details: 100 pg/ml IL-5, four days, compared with dexamethasone
Description: as §1
Flow cytometry was performed on a Becton Dickenson FACScan. Data was analyzed using CellQuest software. For cell surface marker determination, specific antibodies directly conjugated with the fluorescent indicator, phycoerythrin (PE) were utilized.
The general procedure described hereinabove was followed. Eosinophils were incubated with 100 pg/ml IL-5 with or without dexamethasone or HCQ. After four days, eosinophil viability was measured by flow cytometry. The results are depicted in FIG. 3.

[11] = Single-dose intravenous HCQ pharmacokinetics in dogs; assay type: in vivo, Beagle dogs; details: for AUC(0-inf) / Cmax / AUC(0-t) / half-life / Tmax / Vd / clearance: both sexes, beagle, dog, whole blood; for AUC(0-inf) / Cmax / AUC(0-t) / Tmax / Vd / clearance: single day; for AUC(0-t): read-out: AUC0-23; for half-life: 2-compartment model, read-out: Apparent terminal t1/2 (converted)
Description: Two Beagle dogs per dose group (one M: one F) received hydroxychloroquine sulfate, USP as an intravenous bolus infusion over 30 minutes.
Following the single injection, blood samples were drawn at one, two, three, five, six, seven, eight, 12, 18, 24, 36, 120, 192, 264, 360, 528, 696, 864 and 1,032 hours.

[12] = asthma, oral HCQ; cited from earlier work
[13] = tested on: neutrophil, macrophages, T cell; details: at concentrations in the range obtained by targeted delivery; cited from earlier work
[14] = rats, intravenous, 10 mg/kg/day

## CCN(CCO)CCCC(C)Nc1ccnc2cc(Cl)ccc12 (centres unmarked) [HCQ, hydroxychloroquine]
[1]
  HCQ concentration at which IL-5 or PAF induced eosinophil superoxide is inhibited: at least 0.5 mM and ≥ 200 mcg/ml
[2]
  onset of action: 3-4 months
[3]
  incubation time to effect on leukocytes: less than 1 hour
[4]
  HCQ concentration at which eosinophil degranulation is inhibited: > 100 µM
[5]
  release of IL-1beta: rapidly block
  release of IL-6: rapidly block
  release of IL-8: rapidly block
  release of TNF-alpha: rapidly block
  up-regulation of ICAM-1: rapidly block
[6]; rats, intravenous, 5 mg/kg/day
  Tmax: 30 min
  Vd: 11.1 L/kg
  clearance: 20 mL/min/kg
  half-life: 450 min
  AUC(0-inf): 6560 ng·h/mL
  Cmax: 1020 ng/mL
  AUC(0-t): 4050 ng·h/mL
[6]; [14]
  Tmax: 30 min
  Vd: 11.2 L/kg
  clearance: 21.7 mL/min/kg
  half-life: 444 min
  AUC(0-inf): 11000 ng·h/mL
  Cmax: 1740 ng/mL
  AUC(0-t): 7220 ng·h/mL
[6]; rats and dogs, intravenous, versus concentrations needed for in vitro effects
  peak concentrations as fraction of those required: 1/100
[6]; rats, intravenous 10 mg/kg
  peak serum concentrations: 2 µg/mL
[7]; HRV-16 + 0.01 mM HCQ
  IP-10: 6 hrs preincubation: 3084 pg/mL
  IP-10: 24 hrs preincubation: 2506 pg/mL
  RANTES: 6 hrs preincubation: 3326 pg/mL
[7]; HRV-16 + 0.1 mM HCQ
  IP-10: 6 hrs preincubation: 2914 pg/mL
  IP-10: 24 hrs preincubation: 1814 pg/mL
  RANTES: 6 hrs preincubation: 3128 pg/mL
[7]; HRV-16 + 1 mM HCQ
  IP-10: 6 hrs preincubation: 3045 pg/mL
  IP-10: 24 hrs preincubation: 2098 pg/mL
  RANTES: 6 hrs preincubation: 1994 pg/mL
[7]; HRV-16 + 50 mM HCQ
  IP-10: 6 hrs preincubation: 31 pg/mL
  IP-10: 24 hrs preincubation: 31 pg/mL
  RANTES: 6 hrs preincubation: 0 pg/mL
[8]
  therapeutic benefit in IBD: in neither was a consistent therapeutic benefit evident
[9]; HRV-16 + 50 microM HCQ, 24
  IP-10: hrs of preincubation 24: 31 pg/mL
[9]; HRV-16 + 50 microM HCQ, 48
  IP-10: hrs of preincubation 48: 112 pg/mL
[9]; HRV-16 + HCQ, 48
  RANTES: hrs of preincubation 48: 509 pg/mL
[10]
  eosinophil survival: actively shortens eosinophil survival, to a much greater extent than a comparative dose of dexamethasone
[11]
  peak whole blood concentrations: less than 3 mcg/ml
[11]; 5 mg/kg/day
  AUC(0-inf): 24200 ng·h/mL
  Cmax: 1200 ng/mL
  AUC(0-t): 8160 ng·h/mL
  half-life: 1250 min
  Tmax: 30 min
  Vd: 9.1 L/kg
  clearance: 5 mL/min/kg
[11]; 10 mg/kg/day
  AUC(0-inf): 82100 ng·h/mL
  Cmax: 2700 ng/mL
  AUC(0-t): 30900 ng·h/mL
  half-life: 2100 min
  Tmax: 30 min
  Vd: 6.1 L/kg
  clearance: 1.67 mL/min/kg
[12]
  treatment time before therapeutic effect begins: 24-26 weeks
[13]
  neutrophil and macrophage superoxide release, macrophage release of TNF-alpha, IL-6, Interferon-gamma and T cell activation: inhibited
